From US20110015226A1, “Treatment of Energy Utilization Disease” (SUMMIT CORPORATION PLC, priority 2008, published 2011)
Where two headings read alike, the source gives them in different places.

Columns and labels:
Format in all cases: biochemical
[1] = molecular target: T1, β-Glucuronidase Bovine liver (Bos taurus, UniProt A3KMY8); test: Glycosidase inhibition: β-Glucuronidase Bovine liver; settings: for % Glucuronidase inhibition at 0.8 mM Bovine Liver: approximately 0.8 mM;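 for all read-outs here: bovine liver β-glucuronidase acting on p-nitrophenyl β-D-glucuronide substrate in citric acid/disodium hydrogen phosphate buffer, pH 5.0, 27 °C, mean of triplicate runs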
T1 construct: The assay involved the use of Bovine liver β-glucuronidase; purchased Sigma; host or cells: bovine liver
T1 sequence (A3KMY8 1-652): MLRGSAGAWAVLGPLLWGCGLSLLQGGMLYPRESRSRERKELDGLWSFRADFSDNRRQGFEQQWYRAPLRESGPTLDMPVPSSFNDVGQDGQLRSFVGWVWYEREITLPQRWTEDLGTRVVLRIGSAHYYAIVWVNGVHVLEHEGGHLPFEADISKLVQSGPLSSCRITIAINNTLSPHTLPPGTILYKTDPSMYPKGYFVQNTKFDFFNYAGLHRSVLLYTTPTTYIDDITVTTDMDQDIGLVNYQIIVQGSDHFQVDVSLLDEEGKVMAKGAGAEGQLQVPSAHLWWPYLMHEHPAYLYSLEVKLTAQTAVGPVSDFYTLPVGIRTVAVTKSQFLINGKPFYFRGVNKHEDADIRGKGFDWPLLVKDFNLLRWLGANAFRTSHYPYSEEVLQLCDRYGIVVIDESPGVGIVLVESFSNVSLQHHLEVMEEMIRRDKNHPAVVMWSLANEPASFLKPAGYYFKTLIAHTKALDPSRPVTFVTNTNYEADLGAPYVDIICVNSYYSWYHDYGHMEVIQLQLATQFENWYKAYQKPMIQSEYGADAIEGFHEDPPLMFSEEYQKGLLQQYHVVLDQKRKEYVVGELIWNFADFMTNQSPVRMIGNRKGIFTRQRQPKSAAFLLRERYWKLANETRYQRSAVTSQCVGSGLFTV

[2] = test system: N-acetyl-β-D-glucosaminidase (Bovine kidney); test: Glycosidase inhibition: N-acetyl-β-D-glucosaminidase (Bovine kidney); settings: for % Nacetyl glucosaminidase inhibition at 0.8 mM Bovine kidney: approximately 0.8 mM;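 for all read-outs here: enzyme activity followed by cleavage of the matching p-nitrophenyl glycoside (5 mM) in phosphate buffer set to the enzyme's optimal pH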
[3] = molecular target: α-D-glucosidase (Bacillus) (Geobacillus stearothermophilus, UniProt A0ACH1E9U3); test: Glycosidase inhibition: α-D-glucosidase (Bacillus); settings: compounds tested at 0.8 mM
Description: (§1) The results tabulated below were obtained using commercially available glycosidases and p-nitrophenyl-substrates using standard methods described for example by Watson et al (1997) Phytochemistry 46 255-259. All enzymes and substrates were bought from Sigma. Enzyme and substrate solutions were made using sodium phosphate buffers at the pH optima values. The enzymes used were α-D-glucosidase Saccharomyces cerevisiae, Bacillus stearothermophilus, Oryzae sativa), β-D-glucosidase (Almond), α-D-mannosidase (Jack bean), α-D-galactosidase (Green coffee beans), β-D-galactosidase (Bovine liver), α-L-fucosidase (Bovine kidney), N-acetyl-β-D-glucosaminidase (Bovine kidney, Jack bean, Aspergillus oryzae), Naringinase (Penicillium decumbens) and amyloglucosidase (Aspergillus niger). All enzymes were used with the appropriate p-nitrophenyl substrates (5 mM). Amyloglucosidase activity was measured using amylopectin (0.1%) (Merck) mixed with sodium phosphate buffer, pH 4.5 in a glass bottle, and healed in a boiling water bath for 20 minutes to dissolve with released glucose measured using ‘Trinder’ glucose detection solution (Sigma).
(§2) All enzymes and para-nitrophenyl substrates were purchased from Sigma, with the exception of beta-mannosidase which came from Megazyme. Enzymes were assayed at 27° C. in 0.1M citric acid/0.2M disodium hydrogen phosphate buffers at the optimum pH for the enzyme. The incubation mixture consisted of 10 μl enzyme solution, 10 μl of 1 mg/ml aqueous solution of extract and 50 μl of the appropriate 5 mM para-nitrophenyl substrate made up in buffer at the optimum pH for the enzyme. The reactions were stopped by addition of 70 μl 0.4M glycine (pH 10.4) during the exponential phase of the reaction, which had been determined at the beginning using uninhibited assays in which water replaced inhibitor. Final absorbances were read at 405 nm using a Versamax microplate reader (Molecular Devices). Assays were carried out in triplicate, and the values given are means of the three replicates per assay. (See Watson, A. A., Nash, R. J., Wormald, M. R., Harvey, D. J., Dealler, S., Lees, E., Asano, N., Kizu, H., Kato, A., Griffiths, R. C., Cairns, A. J. and Fleet, G. W. J. (1997). Glycosidase-inhibiting pyrrolidine alkaloids from Hyacinthoides non-scripta. Phytochemistry 46 (2): 255-259.)

[4] = molecular target: T2, Amyloglucosidase Aspergillus niger (Aspergillus niger, UniProt P69328); test: Glycosidase inhibition: Amyloglucosidase Aspergillus niger; settings: compounds tested at 0.8 mM
T2 construct: purchased Sigma
Description: as §1, §2

[5] = molecular target: T3, N-acetyl-β-D-glucosaminidase (A. oryzae) (Aspergillus oryzae, UniProt Q8J2T0); test: Glycosidase inhibition: N-acetyl-β-D-glucosaminidase (A. oryzae); settings: compounds tested at 0.8 mM
T3 construct: purchased Sigma
Description: as §1, §2

[6] = molecular target: T4, α-D-galactosidase Green coffee bean (Coffea arabica, UniProt Q42656); test: Glycosidase inhibition: α-D-galactosidase Green coffee bean; settings: compounds tested at 0.8 mM
T4 construct: α-D-galactosidase (Green coffee beans); purchased Sigma; host or cells: green coffee beans
Description: as §1, §2

[7] = molecular target: T5, α-L-fucosidase Bovine kidney (Bos taurus, UniProt Q2KIM0); test: Glycosidase inhibition: α-L-fucosidase Bovine kidney; settings: compounds tested at 0.8 mM
T5 construct: α-L-fucosidase (Bovine kidney); purchased Sigma; host or cells: bovine kidney
T5 sequence (Q2KIM0 23-468): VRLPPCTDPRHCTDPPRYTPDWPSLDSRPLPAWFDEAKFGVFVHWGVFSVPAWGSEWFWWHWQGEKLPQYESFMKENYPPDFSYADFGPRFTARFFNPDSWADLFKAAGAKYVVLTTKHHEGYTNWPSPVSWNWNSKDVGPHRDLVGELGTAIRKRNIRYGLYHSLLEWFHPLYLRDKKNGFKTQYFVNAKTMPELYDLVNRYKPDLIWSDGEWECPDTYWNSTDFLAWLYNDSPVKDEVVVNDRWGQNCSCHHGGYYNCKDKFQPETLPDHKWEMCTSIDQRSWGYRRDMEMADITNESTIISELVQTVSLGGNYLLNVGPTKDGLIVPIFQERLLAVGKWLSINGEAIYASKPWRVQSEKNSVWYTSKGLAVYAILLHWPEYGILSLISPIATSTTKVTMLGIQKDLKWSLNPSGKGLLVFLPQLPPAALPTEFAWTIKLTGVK

α-D-glucosidase (Rice) = molecular target: T6, α-D-glucosidase (Rice) (Oryza sativa subsp. japonica, UniProt Q653V7); test: Glycosidase inhibition: α-D-glucosidase (Rice)
T6 construct: purchased Sigma

[8] = molecular target: T7, α-D-mannosidase Jack bean (Canavalia ensiformis, UniProt C0HJB3); test: Glycosidase inhibition: α-D-mannosidase Jack bean; settings: compounds tested at 0.8 mM
T7 construct: α-D-mannosidase (Jack bean); purchased Sigma
T7 sequence (C0HJB3 1-981): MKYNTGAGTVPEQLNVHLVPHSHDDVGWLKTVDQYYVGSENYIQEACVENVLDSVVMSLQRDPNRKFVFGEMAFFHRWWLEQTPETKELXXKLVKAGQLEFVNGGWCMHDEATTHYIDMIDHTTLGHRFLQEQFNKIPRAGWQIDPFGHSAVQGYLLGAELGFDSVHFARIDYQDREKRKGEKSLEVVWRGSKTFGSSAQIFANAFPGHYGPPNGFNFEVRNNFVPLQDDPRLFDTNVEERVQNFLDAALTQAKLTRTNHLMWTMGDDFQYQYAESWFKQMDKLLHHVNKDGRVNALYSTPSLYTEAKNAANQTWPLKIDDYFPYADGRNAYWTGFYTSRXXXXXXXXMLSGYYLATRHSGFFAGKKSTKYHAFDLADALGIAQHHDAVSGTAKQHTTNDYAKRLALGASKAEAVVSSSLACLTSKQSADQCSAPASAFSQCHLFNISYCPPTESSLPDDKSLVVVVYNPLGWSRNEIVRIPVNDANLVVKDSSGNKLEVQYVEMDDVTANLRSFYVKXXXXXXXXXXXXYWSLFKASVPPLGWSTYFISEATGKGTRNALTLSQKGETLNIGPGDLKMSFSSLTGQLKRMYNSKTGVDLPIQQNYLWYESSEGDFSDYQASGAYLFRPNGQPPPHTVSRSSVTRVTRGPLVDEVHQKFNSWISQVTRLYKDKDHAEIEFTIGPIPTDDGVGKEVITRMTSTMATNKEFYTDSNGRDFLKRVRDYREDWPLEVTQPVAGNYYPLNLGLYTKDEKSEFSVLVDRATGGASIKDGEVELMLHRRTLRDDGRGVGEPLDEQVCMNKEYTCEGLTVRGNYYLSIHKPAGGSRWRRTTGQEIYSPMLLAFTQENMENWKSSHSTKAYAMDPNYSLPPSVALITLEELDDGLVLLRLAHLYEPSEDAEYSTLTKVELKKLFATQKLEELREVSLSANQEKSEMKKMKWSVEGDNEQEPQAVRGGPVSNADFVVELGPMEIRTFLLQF

α-D-glucosidase (Yeast) = molecular target: T8, α-D-glucosidase (Yeast) (Saccharomyces cerevisiae, UniProt P53341); test: Glycosidase inhibition: α-D-glucosidase (Yeast); settings: compounds tested at 0.8 mM
T8 construct: purchased Sigma
Description: as §1, §2

[9] = read-out: IC50 Glucuronidase Bovine Liver
[10] = read-out: IC50 Nacetyl glucosaminidase Bovine kidney

T6 sequence (Q653V7 34-885): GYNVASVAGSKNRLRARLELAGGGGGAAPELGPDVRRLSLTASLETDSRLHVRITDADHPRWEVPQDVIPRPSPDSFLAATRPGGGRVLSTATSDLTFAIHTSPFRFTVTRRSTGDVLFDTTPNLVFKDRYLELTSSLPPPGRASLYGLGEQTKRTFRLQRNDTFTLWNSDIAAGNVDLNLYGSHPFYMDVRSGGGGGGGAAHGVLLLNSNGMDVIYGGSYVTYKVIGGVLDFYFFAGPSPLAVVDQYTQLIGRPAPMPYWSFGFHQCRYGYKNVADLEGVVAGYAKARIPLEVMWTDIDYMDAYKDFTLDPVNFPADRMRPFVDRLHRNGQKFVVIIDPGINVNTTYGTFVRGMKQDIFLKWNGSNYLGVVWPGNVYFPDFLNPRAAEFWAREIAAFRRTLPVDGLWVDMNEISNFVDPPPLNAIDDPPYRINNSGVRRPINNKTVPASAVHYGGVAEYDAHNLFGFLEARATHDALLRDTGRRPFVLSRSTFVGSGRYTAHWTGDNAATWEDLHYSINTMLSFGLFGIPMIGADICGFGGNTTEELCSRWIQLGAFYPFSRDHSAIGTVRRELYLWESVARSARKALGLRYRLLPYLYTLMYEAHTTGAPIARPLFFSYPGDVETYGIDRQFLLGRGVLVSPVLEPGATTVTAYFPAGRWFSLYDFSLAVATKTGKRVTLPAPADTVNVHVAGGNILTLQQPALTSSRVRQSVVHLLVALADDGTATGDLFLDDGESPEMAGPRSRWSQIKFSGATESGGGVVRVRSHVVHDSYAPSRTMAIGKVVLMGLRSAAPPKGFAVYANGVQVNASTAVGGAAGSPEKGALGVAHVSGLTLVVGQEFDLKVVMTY
T4 sequence (Q42656 16-378): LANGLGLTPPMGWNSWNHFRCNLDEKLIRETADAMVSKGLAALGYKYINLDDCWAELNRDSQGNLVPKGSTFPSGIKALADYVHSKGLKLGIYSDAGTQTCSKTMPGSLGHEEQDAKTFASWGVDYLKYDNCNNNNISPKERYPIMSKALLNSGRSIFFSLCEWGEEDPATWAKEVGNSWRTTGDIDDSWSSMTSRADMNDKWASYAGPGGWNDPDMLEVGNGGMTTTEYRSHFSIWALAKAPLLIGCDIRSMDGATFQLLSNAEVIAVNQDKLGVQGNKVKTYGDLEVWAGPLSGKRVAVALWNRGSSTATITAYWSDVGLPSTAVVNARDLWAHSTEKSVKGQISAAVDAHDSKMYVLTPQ
Chain of α-D-glucosidase (Bacillus) (A0ACH1E9U3 entry or part of it): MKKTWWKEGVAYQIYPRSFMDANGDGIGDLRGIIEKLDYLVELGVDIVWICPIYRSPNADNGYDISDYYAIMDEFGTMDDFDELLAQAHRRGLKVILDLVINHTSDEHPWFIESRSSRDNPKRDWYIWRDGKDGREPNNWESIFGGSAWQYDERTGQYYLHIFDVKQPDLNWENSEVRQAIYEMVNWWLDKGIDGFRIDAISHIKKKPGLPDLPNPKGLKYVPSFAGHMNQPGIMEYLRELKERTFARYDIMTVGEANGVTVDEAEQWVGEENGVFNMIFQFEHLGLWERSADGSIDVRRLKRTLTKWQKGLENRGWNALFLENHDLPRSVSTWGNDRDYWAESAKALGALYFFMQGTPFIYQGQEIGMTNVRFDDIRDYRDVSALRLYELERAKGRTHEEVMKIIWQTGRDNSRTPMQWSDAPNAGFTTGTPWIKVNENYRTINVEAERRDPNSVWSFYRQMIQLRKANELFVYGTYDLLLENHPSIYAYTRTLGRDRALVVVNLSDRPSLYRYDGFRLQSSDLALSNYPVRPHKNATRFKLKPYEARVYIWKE
T2 sequence (P69328 25-640): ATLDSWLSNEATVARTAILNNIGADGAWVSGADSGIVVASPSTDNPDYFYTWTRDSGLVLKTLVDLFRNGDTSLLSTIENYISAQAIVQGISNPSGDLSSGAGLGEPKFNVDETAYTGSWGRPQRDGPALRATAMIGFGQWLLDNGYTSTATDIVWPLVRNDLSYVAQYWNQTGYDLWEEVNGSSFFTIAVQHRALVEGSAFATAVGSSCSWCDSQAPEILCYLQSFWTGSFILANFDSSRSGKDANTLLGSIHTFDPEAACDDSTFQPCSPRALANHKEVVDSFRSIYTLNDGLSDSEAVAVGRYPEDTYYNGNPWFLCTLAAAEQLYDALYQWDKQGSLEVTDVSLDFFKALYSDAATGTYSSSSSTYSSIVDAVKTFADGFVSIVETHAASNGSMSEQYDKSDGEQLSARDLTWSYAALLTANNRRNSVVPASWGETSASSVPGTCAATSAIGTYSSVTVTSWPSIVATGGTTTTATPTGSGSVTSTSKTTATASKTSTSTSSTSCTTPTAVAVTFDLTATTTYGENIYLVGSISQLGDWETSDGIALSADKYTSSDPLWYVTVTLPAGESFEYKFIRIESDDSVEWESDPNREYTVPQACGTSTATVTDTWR
T8 sequence (P53341 whole entry): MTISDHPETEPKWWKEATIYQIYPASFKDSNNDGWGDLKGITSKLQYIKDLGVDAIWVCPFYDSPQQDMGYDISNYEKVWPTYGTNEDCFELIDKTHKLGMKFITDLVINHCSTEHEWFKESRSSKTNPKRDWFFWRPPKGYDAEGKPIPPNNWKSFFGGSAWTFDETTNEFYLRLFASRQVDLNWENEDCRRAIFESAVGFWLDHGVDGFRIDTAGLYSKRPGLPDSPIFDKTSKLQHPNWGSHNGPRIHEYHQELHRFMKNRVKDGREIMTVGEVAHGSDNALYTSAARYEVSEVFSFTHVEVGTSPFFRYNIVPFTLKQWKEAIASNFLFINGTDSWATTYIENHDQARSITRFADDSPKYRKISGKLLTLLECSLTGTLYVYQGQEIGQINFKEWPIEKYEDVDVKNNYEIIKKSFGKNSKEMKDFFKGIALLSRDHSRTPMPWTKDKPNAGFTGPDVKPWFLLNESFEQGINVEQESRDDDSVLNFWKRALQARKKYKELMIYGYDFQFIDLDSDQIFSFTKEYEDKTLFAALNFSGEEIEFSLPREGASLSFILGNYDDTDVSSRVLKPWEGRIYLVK
T3 sequence (Q8J2T0 97-600): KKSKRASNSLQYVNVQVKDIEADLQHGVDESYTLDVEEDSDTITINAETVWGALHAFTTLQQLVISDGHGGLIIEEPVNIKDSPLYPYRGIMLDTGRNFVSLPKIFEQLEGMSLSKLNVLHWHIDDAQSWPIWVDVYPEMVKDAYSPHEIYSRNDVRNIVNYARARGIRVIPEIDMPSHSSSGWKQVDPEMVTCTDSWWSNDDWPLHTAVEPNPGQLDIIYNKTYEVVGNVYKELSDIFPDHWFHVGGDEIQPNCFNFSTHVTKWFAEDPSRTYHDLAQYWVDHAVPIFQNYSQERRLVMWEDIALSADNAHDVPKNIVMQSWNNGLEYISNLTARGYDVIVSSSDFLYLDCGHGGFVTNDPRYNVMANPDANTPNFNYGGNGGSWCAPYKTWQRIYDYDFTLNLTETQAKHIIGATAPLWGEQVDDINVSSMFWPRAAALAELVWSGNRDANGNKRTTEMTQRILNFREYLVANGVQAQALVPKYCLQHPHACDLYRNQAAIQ

SMILES	% Glucuronidase inhibition at 0.8 mM Bovine Liver [1] [%]	% Nacetyl glucosaminidase inhibition at 0.8 mM Bovine kidney [2] [%]	further results
Cn1c(=O)c2c(ncn2C)n(C)c1=O [Caffeine, reference compound]	–	–	inhibition at 143 µg/mL ([1]; 143 ug/ml): -2.4%; Mean % Inhibition, N-acetyl-β-D-glucosaminidase Bovine kidney ([2]; 143 ug/ml): 1.3%
O=C(O)[C@H]1NC[C@H](O)[C@@H](O)[C@@H]1O [drawing 22]	88.9	2.4	IC50 [1, 9]: 107 µM
N[C@]1(C(=O)O)C[C@H](CO)C1	−2.2	7.1	–
O=C(O)CN1C[C@H](O)[C@@H](O)[C@H](O)[C@H]1CO [Compound G6, 2-((2R,3R,4R,6S)-3,4,5-Trihydroxy-2-(hydroxymethyl)piperidin-1-yl)acetic acid]	–	–	inhibition at 800 µM [3]: < 50%; inhibition at 800 µM [4]: < 50%; inhibition at 800 µM [5]: < 50%; IC50 ([1]; pH 5.0, 27° C., p-nitrophenyl β-D-glucuronide, read-out: IC50, β-Glucuronidase Bovine liver): 80 µM; inhibition at 800 µM [6]: < 50%; inhibition at 800 µM [7]: < 50%; % inhibition, N-acetyl-β-D-glucosaminidase (Bovine kidney) ([2]; compounds tested at 0.8 mM): 83.6%; IC50 ([2]; read-out: IC50, N-acetyl-β-D-glucosaminidase (Bovine kidney)): 10.4 µM; inhibition at 800 µM (α-D-glucosidase (Rice); compounds tested at 0.8 mM): 99.7%; IC50 (α-D-glucosidase (Rice); read-out: IC50, α-D-glucosidase (Rice)): 1 µM; inhibition at 800 µM [8]: < 50%; inhibition at 800 µM (α-D-glucosidase (Yeast)): < 50%
C[N+]1(C)C[C@@H](O)[C@H](O)[C@H]1C(=O)[O-]	3.8	8	–
CC[C@@H]1C(C)[C@H](C)CN1CCCC(C)=O (stereo partly drawn)	−2	17	–
O=C(O)CN1C[C@@H](O)[C@@H](O)C1[C@@H](O)CO (stereo partly drawn)	4	82.3	IC50 [2, 10]: 137 µM
CCC1CC(CC2CC(CCCC(C)C)[C@@H](CC)C(C)[C@H]2C)C(C)C(C)C1C (stereo partly drawn)	3.9	49.4	–
O=C(O)[C@]1(O)NC[C@@H](O)[C@H]1O	1.4	2.9	–
O=C(O)[C@@]1(O)CNC[C@@H](O)[C@H]1O	58.6	4.8	IC50 [1, 9]: 531 µM
CC(CC(N)C(=O)O)C(=O)O (stereo not drawn)	−1.6	0.8	–
O=C(O)[C@@H]1[C@@H](O)[C@H](O)[C@H]2[C@@H](O)CCN21	−2.3	5.1	–
CC(=O)NC1NC[C@H](C(=O)O)[C@H](O)[C@@H]1O (stereo partly drawn)	97.9	57.9	IC50 [1, 9]: 7.3 µM
C[N+]1(C)CCC[C@H]1C(=O)[O-]	−1.7	2.3	–
CC(O)(CC(N)C(=O)O)C(=O)O (stereo not drawn)	−3.2	−4.2	–
CN1C[C@H](O)C[C@H]1C(=O)O	−3.7	−4.7	–
O=C(O)[C@H]1NCC(O)C1O (stereo partly drawn)	13.8	6.6	–
O=C(O)[C@H]1NC(=O)[C@H](O)[C@@H](O)[C@@H]1O	99.6	−5.2	IC50 [1, 9]: 0.04 µM
C[C@@]1(C(=O)O)NC[C@H](O)[C@H]1O	0.6	7.6	–
O=C(O)[C@H]1N[C@H](CO)C(O)[C@H](O)[C@@H]1O (stereo partly drawn)	3.3	25.8	–
C[N+]1([O-])CC[C@H](O)[C@@H]1C(=O)O (stereo partly drawn)	−4.4	−0.6	–
O=C(O)CCC1[C@H](CO)C(=O)[C@H](O)[C@H]1CO (stereo partly drawn)	85.3	90.1	IC50 [1, 9]: 81 µM; IC50 [2, 10]: 5.1 µM
CC[C@@H]1C(=O)[C@H](O)CN1CCCCC(=O)O	0.8	8	–
